According to US6579967B1, “Receptor-selective somatostatin analogs” (The Salk Institute for Biological Studies, priority 1999, dated 2003):
Entries after “also recorded” stand apart in the source; their conditions may differ. Where two headings read alike, the source gives them in different places.

Assays:
Type in all cases: binding
human SSTR1 = target: T1, human SSTR1 (Homo sapiens, UniProt P30872); assay: Displacement of 125I-[Leu8,D-Trp22,Tyr25]-somatostatin-28 from cloned SSTR1 (receptor autoradiography on membrane pellets)
T1 construct: expressed in transfected cells; host or cells: CHO-K1 cells and CCL39 cells
T1 sequence (P30872 whole entry): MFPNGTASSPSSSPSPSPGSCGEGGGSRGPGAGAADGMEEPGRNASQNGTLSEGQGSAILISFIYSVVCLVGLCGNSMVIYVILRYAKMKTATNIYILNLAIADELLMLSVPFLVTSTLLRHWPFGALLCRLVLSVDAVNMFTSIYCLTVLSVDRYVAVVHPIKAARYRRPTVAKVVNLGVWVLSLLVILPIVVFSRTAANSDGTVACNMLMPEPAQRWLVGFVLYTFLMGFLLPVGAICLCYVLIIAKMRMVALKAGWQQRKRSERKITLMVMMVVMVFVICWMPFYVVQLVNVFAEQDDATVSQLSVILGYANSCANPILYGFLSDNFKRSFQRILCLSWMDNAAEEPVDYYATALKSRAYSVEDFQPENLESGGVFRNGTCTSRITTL
Method: (§1) Generally, recombinant cells expressing the receptor are washed and homogenized to prepare a crude protein homogenate in a suitable buffer, as known in the art. In a typical assay, an amount of protein from the cell homogenate is placed into a small volume of an appropriate assay buffer at an appropriate pH. Candidate substances, such as potential SRIF agonists and antagonists, are added to the admixture in convenient concentrations, and the interaction between the candidate substance and the receptor polypeptide is monitored.
(§2) Receptor binding assays are performed on cloned SRIF receptors as generally set forth in Raynor et al. supra. Using such assays, one can generate KD values which are indicative of the concentration of a ligand necessary to occupy one-half (50%) of the binding sites on a selected amount of a receptor or the like, or alternatively, competitive assays can generate IC50 values which are indicative of the concentration of a competitive ligand necessary to displace a saturation concentration of a target ligand being measured from 50% of binding sites.
(§3) In vitro Bioassay: The various somatostatin analogs are tested in vitro for their ability to bind to isolated cloned receptors expressed on CHO-K1 cells and CCL39 cells. CHO-K1 cells are grown in Ham's F-12 medium, and CCL39 cells are grown in Dulbecco's modified Eagle's medium/Ham's F-12(1:1) mix, supplemented with 10% fetal bovine serum, 100 U/ml penicillin and 100 μg/ml streptomycin, in humidified air containing 5% CO2 at 37° C.
(§4) Cells are washed twice with and scraped into ice-cold 0.05 M Tris-HCl (pH 7.4), collected by centrifugation, and homogenized using a rotor/stator slash system in the same buffer. After centrifugation at 120 g for 5 min. at 4° C., the supernatant is collected and centrifuged again at 48,000 g for 30 min. at 4° C. The resulting pellet is resuspended in ice-cold Tris buffer, transferred into a microfuge tube, and centrifuged at 20,000 g for 15 min. at 4° C. After withdrawal of the supernatant, the membrane pellet is stored at −80° C.
(§5) Receptor autoradiography is performed on 20 μm thick cryostat sections of the membrane pellets, mounted on microscope slides, and then stored at −20° C. […] […] Unlabeled somatostatin-28 is run in parallel using the same increasing concentrations, as a control. IC50 values are calculated after quantification of the data using a computer-assisted image processing system as known in this art.

human SSTR2 = target: T2, human SSTR2 (Homo sapiens, UniProt P30874); assay: Displacement of 125I-[Leu8,D-Trp22,Tyr25]-somatostatin-28 from cloned SSTR2 (receptor autoradiography on membrane pellets)
T2 construct: expressed in transfected cells; host or cells: CHO-K1 cells and CCL39 cells
T2 sequence (P30874 whole entry): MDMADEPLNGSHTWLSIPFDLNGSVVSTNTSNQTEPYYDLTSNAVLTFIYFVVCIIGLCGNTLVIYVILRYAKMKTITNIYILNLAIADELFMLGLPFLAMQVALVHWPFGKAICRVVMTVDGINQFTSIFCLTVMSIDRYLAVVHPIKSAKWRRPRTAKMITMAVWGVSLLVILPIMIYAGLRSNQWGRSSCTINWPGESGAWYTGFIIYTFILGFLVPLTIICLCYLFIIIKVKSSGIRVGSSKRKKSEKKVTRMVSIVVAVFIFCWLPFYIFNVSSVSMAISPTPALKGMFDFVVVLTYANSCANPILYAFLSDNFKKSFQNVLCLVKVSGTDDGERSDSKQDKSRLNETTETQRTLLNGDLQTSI
Method: as §1, §2, §3, §4, §5

human SSTR3 [1] = target: T3, human SSTR3 (Homo sapiens, UniProt P32745); assay: Displacement of 125I-[Leu8,D-Trp22,Tyr25]-somatostatin-28 from cloned SSTR3 (receptor autoradiography on membrane pellets); settings: for binding strength and selectivity for SSTR3, in words: qualitative statement
T3 construct: expressed in transfected cells; host or cells: CHO-K1 cells and CCL39 cells
T3 sequence (P32745 whole entry): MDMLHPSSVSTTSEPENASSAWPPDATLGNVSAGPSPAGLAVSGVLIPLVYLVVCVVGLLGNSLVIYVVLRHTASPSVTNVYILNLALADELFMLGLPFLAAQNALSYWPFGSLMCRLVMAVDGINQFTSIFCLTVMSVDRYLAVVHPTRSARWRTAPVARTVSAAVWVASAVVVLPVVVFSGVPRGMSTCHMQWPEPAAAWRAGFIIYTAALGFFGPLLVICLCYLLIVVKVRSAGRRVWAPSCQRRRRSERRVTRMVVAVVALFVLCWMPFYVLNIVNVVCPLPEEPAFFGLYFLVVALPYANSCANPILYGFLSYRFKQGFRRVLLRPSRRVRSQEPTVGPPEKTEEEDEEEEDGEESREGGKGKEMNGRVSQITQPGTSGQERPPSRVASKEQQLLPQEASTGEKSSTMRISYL
Method: as §1
as §2, with “sites. The peptide des-AA^1,2,4,5,12,13-[D-Agl^8(Me,2-naphthoyl)]SRIF inhibits the binding to SSTR3 of an iodinated SRIF-28 ligand that has strong affinity for all five receptors.” for “sites.”
as §3, §4
(§6) Receptor autoradiography is performed on 20 μm thick cryostat sections of the membrane pellets, mounted on microscope slides, and then stored at −20° C. For each of the tested compounds, complete displacement experiments are performed with the universal somatostatin ligand radioligand ^125I-[Leu^8,D-Trp^22,Tyr^25]-somatostatin-28 that binds with strong affinity to all five receptors. Increasing concentrations of the unlabeled peptide are used ranging from 0.1-1000 nM. Unlabeled somatostatin-28 is run in parallel using the same increasing concentrations, as a control. IC50 values are calculated after quantification of the data using a computer-assisted image processing system as known in this art.
(§7) The potencies of certain SRIF analogs to inhibit radioligand binding of ^125I-[Leu^8,D-Trp^22,[…]]SRIF-28 to the various cloned SRIF receptors are shown in the following table wherein the IC50 values are given in nanomolar concentration.

human SSTR4 = target: T4, human SSTR4 (Homo sapiens, UniProt P31391); assay: Displacement of 125I-[Leu8,D-Trp22,Tyr25]-somatostatin-28 from cloned SSTR4 (receptor autoradiography on membrane pellets)
T4 construct: expressed in transfected cells; host or cells: CHO-K1 cells and CCL39 cells
T4 sequence (P31391 whole entry): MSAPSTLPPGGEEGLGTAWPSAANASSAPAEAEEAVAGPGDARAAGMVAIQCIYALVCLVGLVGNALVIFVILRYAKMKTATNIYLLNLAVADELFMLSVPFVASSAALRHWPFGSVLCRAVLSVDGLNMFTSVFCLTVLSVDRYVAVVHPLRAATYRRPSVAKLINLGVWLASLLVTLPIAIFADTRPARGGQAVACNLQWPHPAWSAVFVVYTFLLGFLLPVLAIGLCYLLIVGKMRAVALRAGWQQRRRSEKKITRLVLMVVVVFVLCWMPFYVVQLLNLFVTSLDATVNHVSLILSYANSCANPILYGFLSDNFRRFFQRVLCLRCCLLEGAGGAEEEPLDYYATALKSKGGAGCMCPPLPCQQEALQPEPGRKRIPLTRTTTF
Method: as §1, §2, §3, §4, §5

human SSTR5 [2] = target: T5, human SSTR5 (Homo sapiens, UniProt P35346); assay: Displacement of 125I-[Leu8,D-Trp22,Tyr25]-somatostatin-28 from cloned SSTR5 (receptor autoradiography on membrane pellets)
T5 construct: expressed in transfected cells; host or cells: CHO-K1 cells and CCL39 cells
T5 sequence (P35346 whole entry): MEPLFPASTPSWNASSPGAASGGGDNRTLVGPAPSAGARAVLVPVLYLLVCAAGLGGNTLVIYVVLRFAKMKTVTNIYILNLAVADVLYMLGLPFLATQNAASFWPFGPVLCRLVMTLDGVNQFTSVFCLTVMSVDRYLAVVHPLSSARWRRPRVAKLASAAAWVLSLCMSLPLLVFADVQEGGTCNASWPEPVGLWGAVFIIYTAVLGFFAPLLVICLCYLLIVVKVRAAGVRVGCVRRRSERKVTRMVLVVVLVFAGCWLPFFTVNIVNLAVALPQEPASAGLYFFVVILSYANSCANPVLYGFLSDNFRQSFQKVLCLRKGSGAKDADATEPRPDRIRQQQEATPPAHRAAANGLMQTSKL
Method: as §1
as §2, with “sites. The peptide des-AA^1,2,4,5,12,13-[D-Agl^8(Me,2-naphthoyl)]SRIF inhibits the binding to SSTR3 of an iodinated SRIF-28 ligand that has strong affinity for all five receptors.” for “sites.”
as §3, §4
as §6, with “Increasing concentrations of the unlabeled peptide are used ranging from 0.1-1000 nM.” left out
as §7

human SSTR3 [3] = target: T3, human SSTR3; assay: Displacement of 125I-[Leu8,D-Trp22,Tyr25]-somatostatin-28 from cloned SSTR3 (receptor autoradiography on membrane pellets); settings: 125I-labelled Tyr2 analog tested as radioligand on cloned receptor
human SSTR5 [4] = target: T5, human SSTR5; assay: Displacement of 125I-[Leu8,D-Trp22,Tyr25]-somatostatin-28 from cloned SSTR5 (receptor autoradiography on membrane pellets); settings: 125I-labelled Tyr2 analog tested as radioligand on cloned receptor
[5] = inhibition of 125I-[Leu8,D-Trp22,Tyr24]SRIF-28 binding, cloned receptor, read-out: IC50 (nM) mSSTR1
[6] = inhibition of 125I-[Leu8,D-Trp22,Tyr24]SRIF-28 binding, cloned receptor, read-out: IC50 (nM) mSSTR2
[7] = inhibition of 125I-[Leu8,D-Trp22,Tyr24]SRIF-28 binding, cloned receptor, read-out: IC50 (nM) mSSTR3
[8] = inhibition of 125I-[Leu8,D-Trp22,Tyr24]SRIF-28 binding, cloned receptor, read-out: IC50 (nM) mSSTR4
[9] = inhibition of 125I-[Leu8,D-Trp22,Tyr24]SRIF-28 binding, cloned receptor, read-out: IC50 (nM) mSSTR5

Compound	IC50 (human SSTR1; [5]) [nM]	IC50 (human SSTR2; [6]) [nM]	relative potency at SSTR3 by comparison to SRIF-28 (human SSTR3 [1]; binding affinity relative to SRIF-28 (=1))	IC50 (human SSTR3 [1]; [7]) [nM]	binding strength and selectivity for SSTR3, in words (human SSTR3 [1]; listed as Peptide 2F)	IC50 (human SSTR4; [8]) [nM]	IC50 (human SSTR5 [2]; [9]) [nM]	IC50 (human SSTR1; iodinated SRIF-28 ligand, cloned human receptor, read-out: concentration below which no binding to human SSTR1) [nM]	IC50 (human SSTR2; iodinated SRIF-28 ligand, cloned human receptor, read-out: concentration below which no binding to human SSTR2) [nM]	IC50 (human SSTR3 [1]; iodinated SRIF-28 ligand, cloned human receptor, read-out: IC50 at cloned human SSTR3) [nM]	binding strength and selectivity for SSTR3, in words (human SSTR3 [1])	IC50 (human SSTR4; iodinated SRIF-28 ligand, cloned human receptor, read-out: concentration below which no binding to human SSTR4) [nM]	IC50 (human SSTR5 [2]; iodinated SRIF-28 ligand, cloned human receptor, read-out: concentration below which no binding to human SSTR5) [nM]	binding of the radioiodinated analog to SSTR3 (human SSTR3 [3])	binding of the radioiodinated analog to SSTR5 (human SSTR5 [4])
C[C@@H](O)[C@@H]1NC(=O)[C@H](CCCCN)NC(=O)[C@@H](N(C)C(=O)c2ccc3ccccc3c2)NC(=O)[C@H](Cc2ccc(O)cc2)NC(=O)[C@H](Cc2ccccc2)NC(=O)[C@H](NC(N)=O)CSSC[C@@H](C(=O)O)NC(=O)[C@H](Cc2ccccc2)NC1=O [Peptide No. 2F, (cyclo 3-14)Cbm-D-Cys-Phe-Tyr-D-Agl(Me,2Np)-Lys-Thr-Phe-Cys-OH]	> 10000	> 10000	about 1.4	6.7 ± 2.6	bind strongly and selectively to SSTR3; also recorded: binding strength essentially equal to that of SRIF-28	> 10000	> 10000	–	–	–	–	–	–	–	–
C[C@@H](O)[C@@H]1NC(=O)[C@H](CCCCN)NC(=O)[C@@H](Cc2ccc3ccccc3c2)NC(=O)[C@H](N(C)C(=O)c2ccccc2)NC(=O)[C@H](Cc2ccccc2)NC(=O)[C@@H](N)CSSC[C@@H](C(=O)O)NC(=O)[C@H](Cc2ccccc2)NC1=O [Peptide No. 3, (cyclo 3-14)H-Cys-Phe-Agl(Me,Bz)-D-2Nal-Lys-Thr-Phe-Cys-OH]	> 10000	> 1000	–	80	–	> 1000	> 1000	> 1000	> 1000	~80	bind selectively to SSTR3; also recorded: selectively binds SSTR3	> 1000	> 1000	–	–
(cyclo)H-Tyr-Cys-Phe-Phe-D-Agl(Me,2Np)-Lys-Thr-Phe-Cys-OH [Peptide No. 4]	–	–	–	–	–	–	–	–	–	–	–	–	–	continues to bind strongly to SSTR3; also recorded: effectively binds to SSTR3 to about the same extent as Peptide No. 2B	No specific binding
